Activity calls are given as the source filed them. The rule behind the calls is not given here.
Key:
[1] = system: NCI-H1975; test: Anti-proliferative activity against human NCI-H1975 cells assessed as cell inhibition measured after 72 hrs in presence of 100 nM JQ1 by MTT assay; format: functional, cell-based; conditions: NCI-H1975, 72 h
[2] = system: Lung adenocarcinoma organoid; test: Anti-tumor activity against Osimertinib-resistant patient (#0416)-derived human Lung adenocarcinoma organoid assessed as inhibition of cell viability measured after 96 hrs relative to control; format: functional, Neoplasm
[3] = system: Osimertinib-resistant HCC827 cell; test: Inhibition of colony formation in human Osimertinib-resistant HCC827 cells at 12.5 nM measured after 14 days in presence of JQ1 by crystal violet staining based analysis; format: functional; conditions: time 14.0 day
[4] = system: Osimertinib-resistant NCI-H1975 cell; test: Induction of apoptosis in human Osimertinib-resistant NCI-H1975 cells assessed as early apoptotic cells at 0.5 uM incubated for 16 hrs by Annexin V-FITC/PI staining based flow cytometry (reference value: 8.02 %); format: functional
[5] = system: NCI-H1299; test: Anti-proliferative activity against human NCI-H1299 cells assessed as cell inhibition measured after 72 hrs by MTT assay; format: functional, cell-based; conditions: NCI-H1299, 72 h
[6] = Metabolic stability in human liver microsomes assessed as clearance measured for 5 to 60 mins by LC-MS/MS analysis; format: ADME, Microsome; conditions: time 5-60 min, read-out: CLH
[7] = Anti-proliferative activity against human Osimertinib-resistant HCC827 cells assessed as cell inhibition measured after 72 hrs in presence of 250 nM JQ1 by MTT assay; format: functional, cell-based
[8] = AUC (0 to infinity) in BALB/c mouse at 2 mg/kg, iv; format: ADME, organism-based; conditions: in vivo
[9] = system: Osimertinib-resistant HCC827 cell; test: Inhibition of homologous recombination repair in human Osimertinib-resistant HCC827 cells by KEGG analysis; format: functional, cell-based
[10] = system: NCI-H1975; test: Antitumor activity against human NCI-H1975 cells xenografted in BALB-c nude mouse assessed as tumor growth inhibition at 5 mg/kg, iv; format: functional, organism-based
[11] = Downregulation of c-Myc level in human Osimertinib-resistant HCC827 cells at 100 nM incubated for 12 hrs in presence of JQ1 by Western blot analysis relative to control; format: functional, Osimertinib-resistant HCC827 cell
[12] = Toxicity in BALB-c nude mouse xenografted with human NCI-H1975 cells assessed as pathological damage in liver at 15 mg/kg, iv administered on every two days by H and E staining based analysis; format: organism-based; conditions: in vivo
[13] = Clearance in Sprague-Dawley rat at 20 mg/kg, po; format: ADME, organism-based; conditions: in vivo
[14] = Toxicity in BALB-c mouse xenografted with human NCI-H1975 cells assessed as decrease in body weight at 5 mg/kg, iv in presence of JQ1; format: organism-based; conditions: in vivo
[15] = Toxicity in BALB-c mouse xenografted with human Osimertinib-resistant HCC827 cells assessed as decrease in body weight at 5 mg/kg, iv; format: organism-based; conditions: in vivo
[16] = system: NCI-H1975; test: Antitumor activity against human NCI-H1975 cells xenografted in BALB-c nude mouse assessed as reduction in Ki-67 expression at 15 mg/kg, iv administered on every two days by IHC analysis; format: functional, organism-based
[17] = system: PC-9; test: Anti-proliferative activity against human PC-9 cells assessed as cell inhibition measured after 72 hrs by MTT assay; format: functional, cell-based; conditions: PC-9, 72 h
[18] = system: NCI-H1975; test: Anti-proliferative activity against human NCI-H1975 cells assessed as cell inhibition measured after 72 hrs by MTT assay; format: functional, cell-based; conditions: NCI-H1975, 72 h
[19] = Half life in Sprague-Dawley rat at 2 mg/kg, iv; format: ADME, organism-based; conditions: in vivo
[20] = Toxicity in BALB-c nude mouse xenografted with human NCI-H1975 cells assessed as body weight loss at 15 mg/kg, iv administered on every two days; format: organism-based; conditions: in vivo
[21] = target: Homeodomain-interacting protein kinase 2 (Homo sapiens) (UniProt Q9H2X6); test: Inhibition of HIPK2 (unknown origin) at 100 nM preincubated for 10 mins followed by substrate/ATP measured after 60 mins by ADP-Glo assay relative to control; conditions: time 70.0 min
[22] = Metabolic stability in mouse liver microsomes assessed as half life measured for 5 to 60 mins by LC-MS/MS analysis; format: ADME, Microsome; conditions: time 5-60 min
[23] = target: Cyclin-dependent kinase 5/CDK5 activator 1 (Homo sapiens) (UniProt Q00535+Q15078); test: Inhibition of CDK5/p35NCK (unknown origin) at 100 nM preincubated for 10 mins followed by substrate/ATP measured after 60 mins by ADP-Glo assay relative to control; format: protein-complex assay; conditions: time 70.0 min
[24] = system: Osimertinib-resistant HCC827 cell; test: Downregulation of c-Myc level in human Osimertinib-resistant HCC827 cells in presence of JQ1 by RNA-Seq analysis; format: functional, cell-based
[25] = target: Homeodomain-interacting protein kinase 4 (Homo sapiens) (UniProt Q8NE63); test: Inhibition of HIPK4 (unknown origin) at 100 nM preincubated for 10 mins followed by substrate/ATP measured after 60 mins by ADP-Glo assay relative to control; conditions: time 70.0 min
[26] = AUC (0 to t) in Sprague-Dawley rat at 20 mg/kg, po; format: ADME, organism-based; conditions: in vivo
[27] = Metabolic stability in monkey liver microsomes assessed as clearance measured for 5 to 60 mins by LC-MS/MS analysis; format: ADME, Macaca mulatta, Microsome; conditions: rhesus monkey, time 5-60 min, read-out: CLH
[28] = system: Lung adenocarcinoma organoid; test: Anti-tumor activity against patient (#2514)-derived human Lung adenocarcinoma organoid assessed as inhibition of cell viability measured after 96 hrs relative to control; format: functional, Neoplasm
[29] = Selectivity ratio of IC50 for anti-proliferative activity against human NCI-H1975 cells to IC50 for anti-proliferative activity against human NCI-H1975 cells in presence of JQ1; format: functional
[30] = system: Lung adenocarcinoma organoid; test: Anti-tumor activity against multidrug-resistant patient (#2422)-derived human Lung adenocarcinoma organoid assessed as inhibition of cell viability measured after 96 hrs; format: functional, tissue-based; conditions: Neoplasm
[31] = target: CDK7/Cyclin H/MNAT1 (Homo sapiens) (UniProt P51946+P50613+P51948); test: Inhibition of CDK7/Cyclin H/MAT1 (unknown origin) at 100 nM preincubated for 10 mins followed by substrate/ATP measured after 60 mins by ADP-Glo assay relative to control; format: protein-complex assay; conditions: time 70.0 min
[32] = Clearance in BALB/c mouse at 15 mg/kg, po; format: ADME, organism-based; conditions: in vivo
[33] = Tmax in Sprague-Dawley rat at 20 mg/kg, po; format: ADME, organism-based; conditions: in vivo
[34] = system: Osimertinib-resistant HCC827 cell; test: Inhibition of DNA replication in human Osimertinib-resistant HCC827 cells by KEGG analysis; format: functional, cell-based
[35] = AUC (0 to infinity) in BALB/c mouse at 15 mg/kg, po; format: ADME, organism-based; conditions: in vivo
[36] = target: Cyclin-dependent kinase 9 (Homo sapiens) (UniProt P50750); test: Inhibition of CDK9 in human Osimertinib-resistant NCI-H1975 cells assessed as decrease in p-RNAPII-ser2 level incubated for 12 hrs by Western blot analysis; format: cell-based; conditions: Osimertinib-resistant NCI-H1975 cell, dose 50-500 nM
[37] = system: Lung adenocarcinoma organoid; test: Anti-tumor activity against Osimertinib-resistant patient (#0243)-derived human Lung adenocarcinoma organoid assessed as inhibition of cell viability measured after 96 hrs; format: functional, tissue-based; conditions: Neoplasm
[38] = Metabolic stability in dog liver microsomes assessed as half life measured for 5 to 60 mins by LC-MS/MS analysis; format: ADME, Canis lupus familiaris, Microsome; conditions: time 5-60 min
[39] = system: Lung adenocarcinoma organoid; test: Anti-tumor activity against Osimertinib-resistant patient (#0243)-derived human Lung adenocarcinoma organoid assessed as inhibition of cell viability measured after 96 hrs relative to control; format: functional, Neoplasm

Homeodomain-interacting protein kinase 4 (Homo sapiens), sequence (Q8NE63 whole entry): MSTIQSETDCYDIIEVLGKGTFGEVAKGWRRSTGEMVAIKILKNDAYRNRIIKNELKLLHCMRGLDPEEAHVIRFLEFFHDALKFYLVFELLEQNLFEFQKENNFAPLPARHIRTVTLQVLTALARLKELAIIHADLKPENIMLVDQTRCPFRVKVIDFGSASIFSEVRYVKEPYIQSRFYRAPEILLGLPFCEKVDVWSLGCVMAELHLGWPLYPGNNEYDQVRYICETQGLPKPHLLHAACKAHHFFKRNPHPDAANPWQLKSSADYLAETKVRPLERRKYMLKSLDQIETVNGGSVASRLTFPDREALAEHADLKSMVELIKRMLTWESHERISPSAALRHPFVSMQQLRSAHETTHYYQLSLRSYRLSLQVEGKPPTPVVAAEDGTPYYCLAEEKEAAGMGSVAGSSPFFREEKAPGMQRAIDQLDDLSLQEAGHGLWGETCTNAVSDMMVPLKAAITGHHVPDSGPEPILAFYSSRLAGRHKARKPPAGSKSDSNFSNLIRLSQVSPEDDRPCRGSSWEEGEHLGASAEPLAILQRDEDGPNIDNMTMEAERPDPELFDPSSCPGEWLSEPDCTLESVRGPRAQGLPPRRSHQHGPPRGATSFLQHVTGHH
Cyclin-dependent kinase 9 (Homo sapiens), sequence (P50750 whole entry): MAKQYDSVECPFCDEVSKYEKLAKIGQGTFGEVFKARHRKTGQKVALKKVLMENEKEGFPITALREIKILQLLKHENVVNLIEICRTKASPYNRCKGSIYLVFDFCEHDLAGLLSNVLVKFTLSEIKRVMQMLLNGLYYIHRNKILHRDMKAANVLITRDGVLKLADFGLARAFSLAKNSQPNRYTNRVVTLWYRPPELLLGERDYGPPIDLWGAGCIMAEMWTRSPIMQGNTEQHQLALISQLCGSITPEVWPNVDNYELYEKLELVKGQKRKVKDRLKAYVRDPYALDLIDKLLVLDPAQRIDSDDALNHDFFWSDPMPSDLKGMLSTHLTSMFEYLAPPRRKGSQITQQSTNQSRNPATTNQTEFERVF
Homeodomain-interacting protein kinase 2 (Homo sapiens), sequence (Q9H2X6 whole entry, looked up): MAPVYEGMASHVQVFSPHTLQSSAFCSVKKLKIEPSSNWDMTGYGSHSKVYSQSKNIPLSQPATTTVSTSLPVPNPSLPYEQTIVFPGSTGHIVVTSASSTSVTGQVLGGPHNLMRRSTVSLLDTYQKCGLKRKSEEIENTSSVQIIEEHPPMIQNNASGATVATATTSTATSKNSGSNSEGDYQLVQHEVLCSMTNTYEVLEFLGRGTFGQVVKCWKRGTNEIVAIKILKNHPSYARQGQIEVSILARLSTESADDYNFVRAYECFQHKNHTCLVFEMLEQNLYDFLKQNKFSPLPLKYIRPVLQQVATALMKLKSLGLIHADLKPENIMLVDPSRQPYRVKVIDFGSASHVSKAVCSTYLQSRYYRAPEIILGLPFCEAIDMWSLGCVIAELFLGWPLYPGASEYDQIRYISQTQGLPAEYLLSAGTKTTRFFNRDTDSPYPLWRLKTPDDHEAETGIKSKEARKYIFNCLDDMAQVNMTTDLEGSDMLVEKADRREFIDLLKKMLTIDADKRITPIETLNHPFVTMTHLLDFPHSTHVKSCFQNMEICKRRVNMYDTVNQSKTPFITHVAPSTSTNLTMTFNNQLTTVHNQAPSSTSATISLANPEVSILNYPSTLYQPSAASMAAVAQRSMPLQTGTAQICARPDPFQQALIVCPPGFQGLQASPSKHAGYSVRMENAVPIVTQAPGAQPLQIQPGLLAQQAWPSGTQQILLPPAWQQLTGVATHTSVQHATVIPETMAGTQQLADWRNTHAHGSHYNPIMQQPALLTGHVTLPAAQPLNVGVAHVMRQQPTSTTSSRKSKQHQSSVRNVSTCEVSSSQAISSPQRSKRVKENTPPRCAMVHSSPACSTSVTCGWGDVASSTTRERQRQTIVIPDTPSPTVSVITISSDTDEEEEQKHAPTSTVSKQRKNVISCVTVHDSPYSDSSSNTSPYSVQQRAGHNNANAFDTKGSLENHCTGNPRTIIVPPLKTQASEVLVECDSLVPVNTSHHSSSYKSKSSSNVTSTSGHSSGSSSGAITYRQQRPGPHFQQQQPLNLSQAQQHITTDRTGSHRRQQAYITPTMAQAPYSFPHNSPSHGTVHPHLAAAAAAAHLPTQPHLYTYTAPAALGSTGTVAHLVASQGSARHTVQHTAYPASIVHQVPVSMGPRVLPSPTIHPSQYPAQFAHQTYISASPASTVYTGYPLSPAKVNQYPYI
Cyclin-dependent kinase 5/CDK5 activator 1 (Homo sapiens), sequence (Q00535 whole entry): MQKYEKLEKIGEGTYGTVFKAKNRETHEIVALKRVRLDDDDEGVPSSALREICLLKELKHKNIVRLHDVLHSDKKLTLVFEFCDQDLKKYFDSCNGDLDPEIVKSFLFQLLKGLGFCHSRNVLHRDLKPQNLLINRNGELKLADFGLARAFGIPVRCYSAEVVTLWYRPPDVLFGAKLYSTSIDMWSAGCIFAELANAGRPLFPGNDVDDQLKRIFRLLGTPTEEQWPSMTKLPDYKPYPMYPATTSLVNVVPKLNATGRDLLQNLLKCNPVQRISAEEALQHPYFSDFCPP
Cyclin-dependent kinase 5/CDK5 activator 1 (Homo sapiens), sequence (Q15078 99-307 partner limits assumed): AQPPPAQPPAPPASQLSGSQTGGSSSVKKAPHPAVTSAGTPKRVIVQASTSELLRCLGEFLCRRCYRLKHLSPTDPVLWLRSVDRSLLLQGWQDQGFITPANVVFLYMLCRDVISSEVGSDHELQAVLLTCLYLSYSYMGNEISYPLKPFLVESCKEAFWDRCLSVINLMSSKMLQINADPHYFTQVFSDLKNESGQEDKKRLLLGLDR

With CC(=O)N1CCC(NC(=O)c2ccc3cc2OCCCCCCOc2cc(ccc2F)-c2nc(ncc2F)N3)CC1 the IC50 [1] was 0.133 µM, the Imax [2] was over 98% and the inhibition [3] was “Active”. For the same molecule, the Activity [4] was 25.4%, the IC50 [5] was 0.07 µM and the microsomal CLint [6] was 10.8 µL/min/mg. The IC50 [7] was 0.0123 µM, the AUC(0-inf) [8] was 396 ng·h/mL and the inhibition [9] was “Active”. For the same molecule, the inhibition [10] was “inactive”, the Activity [11] was 100% and the Activity [12] was “Non-toxic”. The CL/F [13] was 63.3 mL/min/kg, the Activity [14] was “Non-toxic” and the Activity [15] was “Non-toxic”. For the same molecule, the Activity [16] was “Active”, the IC50 [17] was 0.14 µM and the IC50 [18] was 0.11 µM. The half-life [19] was 1.57 h, the Activity [20] was “Non-toxic” and the inhibition [21] was 96%. For the same molecule, the half-life [22] was 1.07 h, the inhibition [23] was 7.24% and the Activity [24] was “Active”. The inhibition [25] was 87.6%, the AUC(0-t) [26] was 3610 ng·h/mL and the microsomal CLint [27] was 23.5 µL/min/mg. For the same molecule, the Imax [28] was 99.9%, the “Ratio IC50” value [29] was 10 and the IC50 [30] was 0.121 µM. The inhibition [31] was 11.9%, the CL/F [32] was 350 mL/min/kg and the Tmax [33] was 0.83 h. The inhibition [34] was “Active”, the AUC(0-inf) [35] was 766 ng·h/mL and the inhibition [36] was “Dose-dependent-effect”. For the same molecule, the IC50 [37] was under 0.01 µM, the half-life [38] was 1.25 h and the Imax [39] was over 98%.

Source: ChEMBL document CHEMBL6153135, “Rational Design of a Potent, Selective, and Metabolically Stable CDK9 Inhibitor to Counteract Osimertinib Resistance through Mcl-1 Suppression and Enhanced BRD4 Co-Targeting” (J Med Chem, 2025)
